The source of these data is patent US20260224589A1 (priority 2023, published 2026).

Each structure is given as a SMILES string. Read-outs that look alike come from different tables or passages of the source. Where only a bound is given, the exact number is not on record here.

The test system of the assay is AsPC-1 cells. Description: phospho-ERK HTRF assay in AsPC-1 cells, 4 h treatment. The class given is cell-based. The note with it: Homo sapiens, ASPC1.
The mark [1] stands for this setting: AsPC-1, 4H, Table 1a class column, read-out: pERK IC50 activity range (*).
Where [2] appears, read: AsPC-1, 4H, Table 1a, read-out: PERK IC50 (AsPC-1, 4H).
The mark [3] stands for this setting: AsPC-1, 4h, Table 1b, read-out: PERK IC50 (AsPC-1, 4h).

For the compound `CN(C)C(=O)c1nn2c(c1Cl)CN(c1nc(OC[C@@]34CCCN3C[C@H](F)C4)nc3c1COC(c1cc(N)ccc1C(F)(F)F)C3)CCC2` (stereo in doubt) [230a, 5-((S)-7-(5-amino-2-(trifluoromethyl)phenyl)-2-(((2R,7aS)-2-fluorotetrahydro-1H-pyrrolizin-7a(5H)-yl)methoxy)-7,8-dihydro-5H-pyrano[4,3-d]pyrimidin-4-yl)-3-chloro-N,N-dimethyl-5,6,7,8-tetrahydro-4H-pyrazolo[1,5-a][1,4]diazepine-2-carboxamide], the IC50 under setting [1] was greater than 500 nM and the IC50 under setting [2] is greater than 10000 nM.
The like results for `CN(C)C(=O)c1nn2c(c1Cl)CN(c1nc(OC[C@@]34CCCN3C[C@H](F)C4)nc3c1COC(c1cc(N)ccc1C(F)(F)F)C3)CCC2` (stereo in doubt) [230b, 5-((R)-7-(5-amino-2-(trifluoromethyl)phenyl)-2-(((2R,7aS)-2-fluorotetrahydro-1H-pyrrolizin-7a(5H)-yl)methoxy)-7,8-dihydro-5H-pyrano[4,3-d]pyrimidin-4-yl)-3-chloro-N,N-dimethyl-5,6,7,8-tetrahydro-4H-pyrazolo[1,5-a][1,4]diazepine-2-carboxamide] were, in that order, 31 to 100 nM and 13 nM.
Consider `CS(=O)(=O)c1nn2c(c1Cl)CN(c1nc(OC[C@@]34CCCN3C[C@H](F)C4)nc3c1CO[C@H](c1c(C(F)(F)F)ccc(N)c1F)C3)CCC2` [211a, 3-((S)-4-(3-Chloro-2-(methylsulfonyl)-7,8-dihydro-4H-pyrazolo[1,5-a][1,4]diazepin-5(6H)-yl)-2-(((2R,7aS)-2-fluorotetrahydro-1H-pyrrolizin-7a(5H)-yl)methoxy)-7,8-dihydro-5H-pyrano[4,3-d]pyrimidin-7-yl)-2-fluoro-4-(trifluoromethyl)aniline], for which the IC50 is 101 to 500 nM under setting [1] and 126 nM under setting [2].
On the same counts, the results for `CS(=O)(=O)c1nn2c(c1Cl)CN(c1nc(OC[C@@]34CCCN3C[C@H](F)C4)nc3c1CO[C@@H](c1c(C(F)(F)F)ccc(N)c1F)C3)CCC2` [211b] are greater than 500 nM and greater than 10000 nM.
The like results for `CN1CCOc2c(nn3c2CN(c2nc(OC[C@@]45CCCN4C[C@H](F)C5)nc4c2CO[C@H](c2c(C(F)(F)F)ccc(N)c2F)C4)CCC3)C1=O` [212a, 11-((S)-7-(3-amino-2-fluoro-6-(trifluoromethyl)phenyl)-2-(((2R,7aS)-2-fluorotetrahydro-1H-pyrrolizin-7a(5H)-yl)methoxy)-7,8-dihydro-5H-pyrano[4,3-d]pyrimidin-4-yl)-4-methyl-3,4,9,10,11,12-hexahydro-8H-[1,4]diazepino[1′,2′:1,5]pyrazolo[3,4-f][1,4]oxazepin-5(2H)-one] were, in that order, greater than 500 nM and 810 nM.
In the case of `CN1CCOc2c(nn3c2CN(c2nc(OC[C@@]45CCCN4C[C@H](F)C5)nc4c2CO[C@@H](c2c(C(F)(F)F)ccc(N)c2F)C4)CCC3)C1=O` [212b], the IC50 runs as follows: under setting [1], greater than 500 nM; under setting [2], greater than 10000 nM.
As to `CN(C)C(=O)c1nn2c(c1Cl)CN(c1nc(OC[C@@]34CCCN3C[C@H](F)C4)nc3c1CO[C@H](c1c(F)c(N)cc(Cl)c1C(F)(F)F)C3)CCC2` [213a, 5-((S)-7-(3-amino-5-chloro-2-fluoro-6-(trifluoromethyl)phenyl)-2-(((2R,7aS)-2-fluorotetrahydro-1H-pyrrolizin-7a(5H)-yl)methoxy)-7,8-dihydro-5H-pyrano[4,3-d]pyrimidin-4-yl)-3-chloro-N,N-dimethyl-5,6,7,8-tetrahydro-4H-pyrazolo[1,5-a][1,4]diazepine-2-carboxamide], under setting [3], the IC50 is less than 10 nM.
Turning to `CN(C)C(=O)c1nn2c(c1Cl)CN(c1nc(OC[C@@]34CCCN3C[C@H](F)C4)nc3c1CO[C@@H](c1c(F)c(N)cc(Cl)c1C(F)(F)F)C3)CCC2` [213b], the half-maximal inhibitory concentration (IC50) under setting [1] is 101 to 500 nM and the IC50 under setting [2] was 320 nM.
As for `CN(C)C(=O)c1nn2c(c1Cl)CN(c1nc(OC[C@@]34CCCN3C[C@H](F)C4)nc3c1CO[C@H](c1c(F)c(N)cc(F)c1C(F)(F)F)C3)CCC2` [214a, 5-((S)-7-(3-amino-2,5-difluoro-6-(trifluoromethyl)phenyl)-2-(((2R,7aS)-2-fluorotetrahydro-1H-pyrrolizin-7a(5H)-yl)methoxy)-7,8-dihydro-5H-pyrano[4,3-d]pyrimidin-4-yl)-3-chloro-N,N-dimethyl-5,6,7,8-tetrahydro-4H-pyrazolo[1,5-a][1,4]diazepine-2-carboxamide], the concentration for half-maximal inhibition (IC50) under setting [3] was less than 10 nM.
Regarding `CN(C)C(=O)c1nn2c(c1Cl)CN(c1nc(OC[C@@]34CCCN3C[C@H](F)C4)nc3c1CO[C@@H](c1c(F)c(N)cc(F)c1C(F)(F)F)C3)CCC2` [214b], the 50% inhibitory concentration (IC50) under setting [1] is greater than 500 nM and the 50% inhibitory concentration (IC50) under setting [2] is 1550 nM.
With `Cc1cc(N)c(F)c([C@@H]2Cc3nc(OC[C@@]45CCCN4C[C@H](F)C5)nc(N4CCCn5nc(C(=O)N(C)C)c(Cl)c5C4)c3CO2)c1C(F)(F)F` [215a, 5-((S)-7-(3-amino-2-fluoro-5-methyl-6-(trifluoromethyl)phenyl)-2-(((2R,7aS)-2-fluorotetrahydro-1H-pyrrolizin-7a(5H)-yl)methoxy)-7,8-dihydro-5H-pyrano[4,3-d]pyrimidin-4-yl)-3-chloro-N,N-dimethyl-5,6,7,8-tetrahydro-4H-pyrazolo[1,5-a][1,4]diazepine-2-carboxamide], under setting [3], the half-inhibitory concentration (IC50) was less than 10 nM.
Take `Cc1cc(N)c(F)c([C@H]2Cc3nc(OC[C@@]45CCCN4C[C@H](F)C5)nc(N4CCCn5nc(C(=O)N(C)C)c(Cl)c5C4)c3CO2)c1C(F)(F)F` [215b]: the IC50 by setting is: under setting [1], 101 to 500 nM; under setting [2], 132 nM.
With `CN(C)C(=O)c1nn2c(c1Cl)CN(c1nc(OC[C@@]34CCCN3C[C@H](F)C4)nc3c1CO[C@H](c1c(C(F)(F)F)cc(F)c(N)c1F)C3)CCC2` [216a, 5-((S)-7-(3-amino-2,4-difluoro-6-(trifluoromethyl)phenyl)-2-(((2R,7aS)-2-fluorotetrahydro-1H-pyrrolizin-7a(5H)-yl)methoxy)-7,8-dihydro-5H-pyrano[4,3-d]pyrimidin-4-yl)-3-chloro-N,N-dimethyl-5,6,7,8-tetrahydro-4H-pyrazolo[1,5-a][1,4]diazepine-2-carboxamide], the IC50 by setting is: under setting [1], 31 to 100 nM; under setting [2], 49 nM.
On the same counts, the results for `CN(C)C(=O)c1nn2c(c1Cl)CN(c1nc(OC[C@@]34CCCN3C[C@H](F)C4)nc3c1CO[C@@H](c1c(C(F)(F)F)cc(F)c(N)c1F)C3)CCC2` [216b] are greater than 500 nM and greater than 10000 nM.
Regarding `CN(C)C(=O)c1nn2c(c1Cl)CN(c1nc(OC[C@@]34CCCN3CC(=C(F)F)C4)nc3c1CO[C@H](c1c(C(F)(F)F)ccc(N)c1F)C3)CCC2` [231a, 5-((S)-7-(3-amino-2-fluoro-6-(trifluoromethyl)phenyl)-2-(((S)-2-(difluoromethylene)tetrahydro-1H-pyrrolizin-7a(5H)-yl)methoxy)-7,8-dihydro-5H-pyrano[4,3-d]pyrimidin-4-yl)-3-chloro-N,N-dimethyl-5,6,7,8-tetrahydro-4H-pyrazolo[1,5-a][1,4]diazepine-2-carboxamide], the half-maximal inhibitory concentration (IC50) is 31 to 100 nM under setting [1] and 32 nM under setting [2].
`CN(C)C(=O)c1nn2c(c1Cl)CN(c1nc(OC[C@@]34CCCN3CC(=C(F)F)C4)nc3c1CO[C@@H](c1c(C(F)(F)F)ccc(N)c1F)C3)CCC2` [231b, 5-((R)-7-(3-amino-2-fluoro-6-(trifluoromethyl)phenyl)-2-(((S)-2-(difluoromethylene)tetrahydro-1H-pyrrolizin-7a(5H)-yl)methoxy)-7,8-dihydro-5H-pyrano[4,3-d]pyrimidin-4-yl)-3-chloro-N,N-dimethyl-5,6,7,8-tetrahydro-4H-pyrazolo[1,5-a][1,4]diazepine-2-carboxamide]: the IC50 under setting [1] was greater than 500 nM and the IC50 under setting [2] is greater than 10000 nM.
Take `CN(C)C(=O)c1nn2c(c1Cl)CN(c1nc(OC[C@@]34CCCN3C/C(=C\F)C4)nc3c1CO[C@H](c1c(F)c(N)cc(Cl)c1C(F)(F)F)C3)CCC2` [247a, 5-((S)-7-(3-amino-5-chloro-2-fluoro-6-(trifluoromethyl)phenyl)-2-(((S,Z)-2-(fluoromethylene)tetrahydro-1H-pyrrolizin-7a(5H)-yl)methoxy)-7,8-dihydro-5H-pyrano[4,3-d]pyrimidin-4-yl)-3-chloro-N,N-dimethyl-5,6,7,8-tetrahydro-4H-pyrazolo[1,5-a][1,4]diazepine-2-carboxamide]: under setting [3], the IC50 is less than 10 nM.
As for `CN(C)C(=O)c1nn2c(c1Cl)CN(c1nc(OC[C@@]34CCCN3C/C(=C\F)C4)nc3c1CO[C@@H](c1c(F)c(N)cc(Cl)c1C(F)(F)F)C3)CCC2` [247b, 5-((R)-7-(3-amino-5-chloro-2-fluoro-6-(trifluoromethyl)phenyl)-2-(((S,Z)-2-(fluoromethylene)tetrahydro-1H-pyrrolizin-7a(5H)-yl)methoxy)-7,8-dihydro-5H-pyrano[4,3-d]pyrimidin-4-yl)-3-chloro-N,N-dimethyl-5,6,7,8-tetrahydro-4H-pyrazolo[1,5-a][1,4]diazepine-2-carboxamide], the IC50 by setting is: under setting [1], greater than 500 nM; under setting [2], 615 nM.
As for `CN(C)C(=O)c1nn2c(c1Cl)CN(c1nc(OC[C@@]34CCCN3CC(=C(F)F)C4)nc3c1CO[C@H](c1c(F)c(N)cc(Cl)c1C(F)(F)F)C3)CCC2` [248a, 5-((S)-7-(3-amino-5-chloro-2-fluoro-6-(trifluoromethyl)phenyl)-2-(((S)-2-(difluoromethylene)tetrahydro-1H-pyrrolizin-7a(5H)-yl)methoxy)-7,8-dihydro-5H-pyrano[4,3-d]pyrimidin-4-yl)-3-chloro-N,N-dimethyl-5,6,7,8-tetrahydro-4H-pyrazolo[1,5-a][1,4]diazepine-2-carboxamide], the IC50 under setting [3] was less than 10 nM.
Take `CN(C)C(=O)c1nn2c(c1Cl)CN(c1nc(OC[C@@]34CCCN3CC(=C(F)F)C4)nc3c1CO[C@@H](c1c(F)c(N)cc(Cl)c1C(F)(F)F)C3)CCC2` [248b, 5-((R)-7-(3-amino-5-chloro-2-fluoro-6-(trifluoromethyl)phenyl)-2-(((S)-2-(difluoromethylene)tetrahydro-1H-pyrrolizin-7a(5H)-yl)methoxy)-7,8-dihydro-5H-pyrano[4,3-d]pyrimidin-4-yl)-3-chloro-N,N-dimethyl-5,6,7,8-tetrahydro-4H-pyrazolo[1,5-a][1,4]diazepine-2-carboxamide]: the half-inhibitory concentration (IC50) under setting [1] was greater than 500 nM and the IC50 under setting [2] is greater than 2500 nM.
